Test results reported in patent US12274679B2, “Substituted alkylphenols as HCN1 antagonists” (Cornell University, priority 2018, dated 2025).
Entries after “also recorded” stand apart in the source; their conditions may differ.

What was measured:
HCN1 channels = biological target: T1, HCN1 channels (Mus musculus, UniProt O88704); assay: Two electrode voltage clamp of HCN1 channels expressed in Xenopus oocytes (shift in V1/2); format: cell-based; details: for inhibition of HCN1 channel gating: 20 min pre-incubation, 20 mM HPβCD + DMSO, compared with free 2,6-DTBP; for efficacy apparent in the concentration response (Hill fit): ΔV1/2 of HCN1, 2,6 di-alkylbenzene analogues; for potency as HCN1 inverse agonist compared with propofol: relative to propofol (2,6-di-iso-propylphenol); for offset of the 2,6-DTBP Hill fit of the V1/2 shift: right shift of the concentration-response relative to 2,6-DTBP, HCN1
T1 sequence (O88704 74-390 limits assumed): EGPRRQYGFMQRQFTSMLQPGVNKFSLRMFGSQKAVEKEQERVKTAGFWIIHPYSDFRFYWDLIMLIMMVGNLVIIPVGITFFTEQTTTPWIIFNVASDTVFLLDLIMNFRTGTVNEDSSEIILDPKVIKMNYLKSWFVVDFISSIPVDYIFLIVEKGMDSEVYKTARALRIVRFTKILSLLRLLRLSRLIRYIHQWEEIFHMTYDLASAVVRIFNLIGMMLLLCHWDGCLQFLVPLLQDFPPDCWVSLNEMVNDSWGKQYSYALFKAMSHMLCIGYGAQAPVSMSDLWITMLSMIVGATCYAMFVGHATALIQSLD

[1] = Whole blood concentration after oral gavage, LC-MS/MS; format: in vivo; details: rats, oral gavage in peanut oil, 0.58 mmole/kg, over 30 hours
Experimental: FIG. 29 is a graph showing the concentration of BP4L-18:1:1 in whole blood after administration to rats. Eight adult rats were gavaged with either 0.5 mL of peanut oil (n=4) or 0.5 mL of peanut oil containing 0.58 mmole/kg BP4L-18:1:1 (n=4). Blood samples were obtained at the indicated times. Following extraction using equi-volumes of acetonitrile, precipitation and filtration, blood concentrations of BP4L-18:1:1 were determined using LC-MS/MS. Dotted black lines indicate the concentrations of BP4L-18:1:1 for individual animals that received drug, the solid black line indicates the mean±SEM for the plus-drug cohort. Dotted and solid grey lines are, respectively, the concentrations of BP4L-18:1:1 detected in individual peanut oil-alone animals and the mean±SEM thereof. Grey lines superimpose and are indistinguishable from the time axis.
LCMS/MS was performed on an Agilent 1290 Infinity II UPLC system and Agilent 6495 Triple Quadrupole mass spectrometer. […] Quantitation was performed using multiple reaction monitoring in positive electrospray ionization mode using the transition 517.4→233.1 and a collision energy of 42. […]
Pharmacokinetic properties of exemplary compound BP4L-18:1:1 (compound 6) were evaluated in rats (FIG. 29). In particular, concentration of BP4L-18:1:1 in whole blood samples were determined over the course of 30 hours after oral administration.

[2] = Solubilisation in DMSO and dispersion into aqueous buffer; format: physicochemical
HCN1 vs. HCN2-4 = assay: Effect on V1/2 of HCN1-4 channels (isoform selectivity); format: cell-based
[3] = tested on: chronic constriction injury model of peripheral neuropathic pain; details: bolus administration; cited from earlier work
[4] = tested on: normal nociception, locomotor activity, motor coordination, muscle strength; details: anti-hyperalgesic dose, cited from earlier work
[5] = tested on: mechanical and thermal hyperalgesia after nerve ligation; assay: Nerve ligation model: paw withdrawal probability and hindpaw withdrawal latency after cumulative i.p. dosing
[6] = tested on: animal models of neuropathic pain; details: in vivo; cited from earlier work
[7] = simultaneous fit, absence and presence of 3 μM 2,6-DTBP

CC(C)c1cc(C(C)(C)C)cc(C(C)C)c1O [4-TBP]
HCN1 antagonism by 4-substituted 2,6-DIPPs (HCN1 channels): fully effective

CC(C)(C)c1cc(C(=O)CCCCCCCC/C=C/CCCCCCC(O)CO)cc(C(C)(C)C)c1O (stereo not drawn) [BP4L-18:1:1, (E)-1-(3,5-di-tert-butyl-4-hydroxyphenyl)-18,19-dihydroxynonadec-10-en-1-one]
inhibition of HCN1 channel gating (HCN1 channels): concentration-dependent; also recorded: effectively inhibits channel gating with a potency and efficacy indistinguishable from free 2,6-DT BP
absorption / bioavailability from whole blood concentration [1]: absorbed demonstrating bioavailability

CCc1cccc(CC)c1O [2,6-DEP]
efficacy apparent in the concentration response (Hill fit) (HCN1 channels): partial

CC(C)C1CCCC(C(C)C)C1O (stereo not drawn) [2,6-DIPCH]
efficacy apparent in the concentration response (Hill fit) (HCN1 channels): partial

CC(C)(C)c1cc(C(=O)CCCCCCCCC(O)CO)cc(C(C)(C)C)c1O (stereo not drawn) [BP4L-10:0:1]
inhibition of HCN1 channel gating (HCN1 channels): largely ineffective
dispersion into an aqueous buffer [2]: reasonably easy to disperse

CC(C)c1cccc(C(C)C)c1O [2,6-DIPP, 2,6-di-iso-propylphenol]
efficacy apparent in the concentration response (Hill fit) (HCN1 channels): full

CCC(C)c1ccc(O)c(C(C)CC)c1 (stereo not drawn) [2,4-DSBP, 2,4-di-sec-butylphenol]
potency as HCN1 inverse agonist compared with propofol (HCN1 channels): less potent
offset of the 2,6-DTBP Hill fit of the V1/2 shift (HCN1 channels): 23 fold

CC(C)c1cc(N)cc(C(C)C)c1O [4-AP]
HCN1 antagonism by 4-substituted 2,6-DIPPs (HCN1 channels): effective

CC(C)(C)c1ccc(O)c(C(C)(C)C)c1 [2,4-DTBP, 2,4-di-tert-butylphenol]
potency as HCN1 inverse agonist compared with propofol (HCN1 channels): more potent
offset of the 2,6-DTBP Hill fit of the V1/2 shift (HCN1 channels): 2 fold

CC(C)(C)c1cccc(C(C)(C)C)c1O [2,6-DTBP, 2,6-di-tert-butylphenol]
potency as HCN1 inverse agonist compared with propofol (HCN1 channels): more potent
efficacy apparent in the concentration response (Hill fit) (HCN1 channels): full
selectivity for HCN1 vs. HCN2-4 (HCN1 vs. HCN2-4): retains propofol's selectivity for HCN1 vs. HCN2-4
reversal of mechanical hypersensitivity [3]: ~45%
reversal of thermal hypersensitivity [3]: complete reversal
normal nociception (pin prick test) [4]: does not disrupt normal nociception
locomotor activity, motor coordination and muscle strength ([4]; open field, rotarod, horizontal wire): nor does it perturb
mechanical and thermal hyperalgesia with respect to mechanical and thermal nociception [5]: Selectively Suppresses Mechanical and Thermal Hyperalgesia
thermal hyperalgesia (HPWL) ([5]; heat source intensity 15%): ameliorates thermal hyperalgesia
thermal nociception (HPWL) ([5]; heat source intensity 30%): without overt effect

CC(Cl)CCCCCCCCC(=O)c1cc(C(C)(C)C)c(O)c(C(C)(C)C)c1 (stereo not drawn) [BP4C-11:0:1]
HCN1 antagonism of tethered, unanchored 2,6-DTBP (HCN1 channels; 10 and 100 μM, applied from the outside): 4-adduct tolerance is retained
dispersion into an aqueous buffer [2]: reasonably easy to disperse

COc1cc2c(cc1OC)CC(=O)N(CCCN(C)C[C@H]1Cc3cc(OC)c(OC)cc31)CC2 [ivabradine]
anti-hyperalgesia [6]: significant anti-hyperalgesia

CC(C)c1cc([N+](C)(C)C)cc(C(C)C)c1O [4-TMAP]
HCN1 antagonism by 4-substituted 2,6-DIPPs (HCN1 channels): ineffective

CCC(C)c1cccc(C(C)CC)c1O (stereo not drawn) [2,6-DSBP, 2,6-di-sec-butylphenol]
EC50 (HCN1 channels): 370 µM
potency as HCN1 inverse agonist compared with propofol (HCN1 channels): less potent
offset of the 2,6-DTBP Hill fit of the V1/2 shift (HCN1 channels): 15 fold
JcI (association constant, common site model N=4) (HCN1 channels; [7]): 3,696±2,948
JoI (association constant, common site model N=4) (HCN1 channels; [7]): 881±1,801
inverse agonist potency and efficacy (HCN1 channels; ΔV1/2 in absence and presence of 3 μM 2,6-DTBP): low potency, high efficacy, inverse agonist
efficacy apparent in the concentration response (Hill fit) (HCN1 channels): partial

CC(C)(C)C1CCCC(C(C)(C)C)C1O (stereo not drawn) [2,6-DTBCH]
efficacy apparent in the concentration response (Hill fit) (HCN1 channels): partial

CCN(c1ccccc1)c1cc(=NC)n(C)c(C)n1.Cl [ZD7288]
anti-hyperalgesia [6]: significant anti-hyperalgesia
